Test results reported in the supplement of paper PMC11208160.

Test: recombinant barcode read abundance after kanamycin selection (control-corrected) (log10(CPM+1)); higher = more efficient recombination; sequences stand for … in AGTGCAGAGAAAATCGGCCAGTTTTCTCTGCCTGCAGTCCGCATGCCGT…AGATTTATGCAGCGGACTGCCTTTCTCCCAAAGTGATAAACCGGACAGTATCATGGACCGGTTTTCCCGGTAATCCGTATTTGCAAGGTTGGTTTCACT; site = the 11-nt target
Summary of the method: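 Targets were screened in pooled form in E. coli against IS621 bridge RNA target-binding loops. Recombination efficiency is based on barcode counts at recombinant junctions in counts per million, averaged and corrected for the control. Numbers are shown as log10(CPM+1), with duplicate plates on chloramphenicol/ampicillin LB agar (control) or chloramphenicol/ampicillin/kanamycin with 0.1 mM IPTG.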
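Also: IS621 recombinase and bridge RNA in Escherichia coli cells.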

Row | Sequence | recombinant barcode read abundance (log10)
1 | GCGCGGCCTTGGGTTCTAACCTGTTGCCT (site ACGCGGCCTAG) | 0.56
2 | GCGCGGCCTTGGGTTCTAACCTGTTGCCT (site CCGCGGCCTAG) | 0.0374
3 | GCGCGGCCTTGGGTTCTAACCTGTTGCCT (site GCGCGGCCTAG) | 0.253
4 | GCGCGGCCTTGGGTTCTAACCTGTTGCCT (site TCGCGGCCTAG) | 0.0177
5 | GCGGATCCTTGGGTTCTAACCTGTTGCTA (site AGATTAGCTCG) | 0.159
6 | GCGGATCCTTGGGTTCTAACCTGTTGCTA (site GCGGATCCTTA) | 1.9
7 | GCGGCTCCTTGGGTTCTAACCTGTTGCAT (site GCGACTCCTAT) | 0.0805
8 | GCGGCTCCTTGGGTTCTAACCTGTTGCAT (site GCGCCTCCTAT) | 0.0751
9 | GCGGCTCCTTGGGTTCTAACCTGTTGCAT (site GCGGCTCCTAT) | 1.55
10 | GCGGCTCCTTGGGTTCTAACCTGTTGCAT (site GCGTCTCCTAT) | 0.331
11 | GCGGGTACTTGGGTTCTAACCTGTTGCCT (site GCGGGTACTAG) | 1.47
12 | GCGGGTACTTGGGTTCTAACCTGTTGCCT (site GCGTGTACTAG) | 0.0951
13 | GCGTCCACTTGGGTTCTAACCTGTTGCTA (site GCGTCCACTTA) | 0.0606
14 | GCGTCCACTTGGGTTCTAACCTGTTGCTA (site GCGTGCCCTTA) | 0.299
15 | GCGTCCTCTTGGGTTCTAACCTGTTGCTT (site GCGTCCTCTAA) | 0.636
16 | GCGTCCTCTTGGGTTCTAACCTGTTGCTT (site TACCGTCCTCC) | 0.0776
17 | GCGTCTACTTGGGTTCTAACCTGTTGCCT (site GCGTCTACTAG) | 0.169
18 | GCGTCTACTTGGGTTCTAACCTGTTGCCT (site GCGTGGACTAG) | 0.051
19 | GCGTGCCCTTGGGTTCTAACCTGTTGCTA (site GCGTCCACTTA) | 0.00781
20 | GCGTGCCCTTGGGTTCTAACCTGTTGCTA (site GCGTGCCCTTA) | 0.356
21 | GCGTGGACTTGGGTTCTAACCTGTTGCCT (site GCGTCTACTAG) | 0.235
22 | GCGTGGACTTGGGTTCTAACCTGTTGCCT (site GCGTGGACTAG) | 1.61

Row | Sequence | recombinant barcode read abundance (log10)
23 | GCGTTACCTTGGGTTCTAACCTGTTGCCT (site GCGTTACCTAG) | 0.97
24 | GCGTTACCTTGGGTTCTAACCTGTTGCCT (site GGGATACCTAG) | 0.0535
25 | GCTAAGACTTGGGTTCTAACCTGTTGCTG (site GCTAAGACTCA) | 1.93
26 | GCTAAGACTTGGGTTCTAACCTGTTGCTG (site GGTAAGACTCC) | 0.0258
27 | GCTACCTCTTGGGTTCTAACCTGTTGCCT (site GCTACCTCTAG) | 1.6
28 | GCTACCTCTTGGGTTCTAACCTGTTGCCT (site GTGACCTCTAG) | 0.254
29 | GCTAGCCCTTGGGTTCTAACCTGTTGCGG (site GCGAGCCCTAC) | 0.0935
30 | GCTAGCCCTTGGGTTCTAACCTGTTGCGG (site GCTAGCCCTCC) | 1.83
31 | GCTAGGGCTTGGGTTCTAACCTGTTGCAG (site GCAAGGGCTCG) | 0.491
32 | GCTAGGGCTTGGGTTCTAACCTGTTGCAG (site GCTAGGGCTCT) | 2.94
33 | GCTCAGACTTGGGTTCTAACCTGTTGCCT (site GCTCAGACTAG) | 1.78
34 | GCTCAGACTTGGGTTCTAACCTGTTGCCT (site GCTCAGCCTAG) | 0.0925
35 | GCTCAGACTTGGGTTCTAACCTGTTGCCT (site GCTCAGGCTAG) | 0.132
36 | GCTCAGACTTGGGTTCTAACCTGTTGCCT (site GCTCAGTCTAG) | 0.0442
37 | GCTCCTACTTGGGTTCTAACCTGTTGCCT (site GATCCTACTAG) | 0.118
38 | GCTCCTACTTGGGTTCTAACCTGTTGCCT (site GCTCCTACTAG) | 0.0272
39 | GCTCCTACTTGGGTTCTAACCTGTTGCCT (site GGTCCTACTAG) | 0.48
40 | GCTCCTACTTGGGTTCTAACCTGTTGCCT (site GTTCCTACTAG) | 0.108
41 | GCTCGGGCTTGGGTTCTAACCTGTTGCGG (site ATGTCCTCTTG) | 0.0124
42 | GCTCGGGCTTGGGTTCTAACCTGTTGCGG (site GCTCGGGCTCC) | 2.6
43 | GCTCTAGCTTGGGTTCTAACCTGTTGCCT (site GCACAAGCTAG) | 0.0696
44 | GCTCTAGCTTGGGTTCTAACCTGTTGCCT (site GCTCTAGCTAG) | 0.0295

Row | Sequence | recombinant barcode read abundance (log10)
45 | GCTGAGACTTGGGTTCTAACCTGTTGCGT (site CTCTGTCCTCA) | 0.237
46 | GCTGAGACTTGGGTTCTAACCTGTTGCGT (site GCTGAGACTAC) | 2.04
47 | GCTGAGGCTTGGGTTCTAACCTGTTGCTG (site GCTGAGGCTCA) | 1.05
48 | GCTGAGGCTTGGGTTCTAACCTGTTGCTG (site TCTGAGTCTCA) | 0.256
49 | GCTGGGTCTTGGGTTCTAACCTGTTGCCT (site GATGGGTCTAG) | 0.0435
50 | GCTGGGTCTTGGGTTCTAACCTGTTGCCT (site GCTGGGTCTAG) | 0.814
51 | GCTTACCCTTGGGTTCTAACCTGTTGCTA (site GCTTACCCTTA) | 0.36
52 | GCTTACCCTTGGGTTCTAACCTGTTGCTA (site TAGCTAGCTAC) | 0.0382
53 | GCTTCGGCTTGGGTTCTAACCTGTTGCCT (site GCATCGGCTAG) | 0.193
54 | GCTTCGGCTTGGGTTCTAACCTGTTGCCT (site GCCTCGGCTAG) | 0.0138
55 | GCTTCGGCTTGGGTTCTAACCTGTTGCCT (site GCGTCGGCTAG) | 0.0514
56 | GCTTCGGCTTGGGTTCTAACCTGTTGCCT (site GCTTCGGCTAG) | 0.282
57 | GCTTGAACTTGGGTTCTAACCTGTTGCTT (site GCTTGAACTAA) | 0.292
58 | GCTTGAACTTGGGTTCTAACCTGTTGCTT (site GGTTGAACTAT) | 0.0501
59 | GCTTGGCCTTGGGTTCTAACCTGTTGCCT (site CCTTGGTCTAG) | 0.211
60 | GCTTGGCCTTGGGTTCTAACCTGTTGCCT (site GCTTGGCCTAG) | 0.188
61 | GCTTGGTCTTGGGTTCTAACCTGTTGCGA (site CTAGCTCCTAA) | 0.173
62 | GCTTGGTCTTGGGTTCTAACCTGTTGCGA (site GCTTGGTCTTC) | 1.57
63 | GGAAAGACTTGGGTTCTAACCTGTTGCCT (site GGAAAGACTAG) | 1.58
64 | GGAAAGACTTGGGTTCTAACCTGTTGCCT (site GGCAAGACTAG) | 0.18
65 | GGAAAGACTTGGGTTCTAACCTGTTGCCT (site GGGAAGACTAG) | 0.297
66 | GGAAAGACTTGGGTTCTAACCTGTTGCCT (site GGTAAGACTAG) | 0.505

Row | Sequence | recombinant barcode read abundance (log10)
67 | GGAAGCTCTTGGGTTCTAACCTGTTGCTT (site GGAAGCTCTAA) | 0.591
68 | GGAAGCTCTTGGGTTCTAACCTGTTGCTT (site GTACGCTCTAA) | 0.0116
69 | GGAAGGTCTTGGGTTCTAACCTGTTGCAT (site ACGTCCACTTG) | 0.0537
70 | GGAAGGTCTTGGGTTCTAACCTGTTGCAT (site GGAAGGTCTAT) | 1.98
71 | GGAATGACTTGGGTTCTAACCTGTTGCCT (site GAAATGACTAG) | 0.344
72 | GGAATGACTTGGGTTCTAACCTGTTGCCT (site GCAATGACTAG) | 0.726
73 | GGAATGACTTGGGTTCTAACCTGTTGCCT (site GGAATGACTAG) | 2.02
74 | GGAATGACTTGGGTTCTAACCTGTTGCCT (site GTAATGACTAG) | 0.545
75 | GGACCATCTTGGGTTCTAACCTGTTGCCT (site GGACAATCTAG) | 0.29
76 | GGACCATCTTGGGTTCTAACCTGTTGCCT (site GGACCATCTAG) | 0.915
77 | GGACCATCTTGGGTTCTAACCTGTTGCCT (site GGACGATCTAG) | 0.146
78 | GGACCATCTTGGGTTCTAACCTGTTGCCT (site GGACTATCTAG) | 0.276
79 | GGACCCTCTTGGGTTCTAACCTGTTGCCT (site AGACCCTCTAG) | 1.09
80 | GGACCCTCTTGGGTTCTAACCTGTTGCCT (site CGACCCTCTAG) | 0.406
81 | GGACCCTCTTGGGTTCTAACCTGTTGCCT (site GGACCCTCTAG) | 1.96
82 | GGACCCTCTTGGGTTCTAACCTGTTGCCT (site TGACCCTCTAG) | 0.353
83 | GGACCTCCTTGGGTTCTAACCTGTTGCAT (site GGACCTCCTAA) | 0.342
84 | GGACCTCCTTGGGTTCTAACCTGTTGCAT (site GGACCTCCTAC) | 0.805
85 | GGACCTCCTTGGGTTCTAACCTGTTGCAT (site GGACCTCCTAG) | 0.0883
86 | GGACCTCCTTGGGTTCTAACCTGTTGCAT (site GGACCTCCTAT) | 1.96
